Experimental data: EPA's ToxValDB 9.5 (doi:10.2903/j.efsa.2009.186r)
Values after ≈ are worked out from the molar mass of the structure shown.

How the values were obtained:
[1] = tested on: Anas platyrhynchos; settings: acute; oral; unspecified; mortality
[2] = tested on: Aphidius rhopalosiphi; settings: not reported; mortality
[3] = tested on: Apis mellifera; settings: acute; duration: 48 hours; oral; unspecified; mortality
[4] = tested on: Bibionidae; settings: chronic/long-term; duration: 28 days
[5] = tested on: Canidae; settings: chronic; duration: 1 years; oral; Dog Other; clinical signs
[6] = tested on: Colinus virginianus; settings: for LD50: acute, oral, mortality
[7] = tested on: Daphnia magna; settings: chronic/long-term; duration: 21 days; reproduction
[8] = tested on: Mus musculus; settings: acute; oral; mortality
[9] = tested on: Oncorhynchus mykiss
[10] = tested on: Rattus norvegicus
[11] = tested on: Tagia sp.; settings: acute; duration: 14 days; mortality

Cc1c(COC(=O)[C@@H]2[C@H](/C=C(\Cl)C(F)(F)F)C2(C)C)cccc1-c1ccccc1 [Bifenthrin]
LD50 [1]: > 2150 mg/kg | LEL [2]: 60 g/ha | LD50 [3]: 0.1 µg/piece | NOEC [4]: 0.00032 mg/L | NOAEL [5]: 1.5 mg/kg-day | LD50 ([6]; diet): 569 mg/kg-day | LD50 [6]: 1800 mg/kg | NOEC ([6]; reproduction developmental): 75 mg/kg-day | NOEC [7]: 9.5e-07 mg/L | LD50 [8]: 42.5 mg/kg | LC50 ([9]; acute, duration: 96 hours, mortality): 0.1 ng/mL (≈ 0.236 nM) | NOEC ([9]; chronic/long-term, duration: 30 days, other): 1.2e-05 mg/L | NOAEL ([10]; developmental, development): > 2 mg/kg-day | NOAEL ([10]; reproduction developmental, reproduction): 3 mg/kg-day | NOAEL ([10]; subchronic, duration: 90 days, oral, neurology): 2.9 mg/kg-day | LC50 [11]: > 16 mg/kg
